Measurements taken from patent publication US12414995B2, “Bifunctional compounds comprising Apcin-A and their use in the treatment of cancer” (Northwestern University, priority 2019, dated 2025).

What was measured:
Cdc20 [1] = target: T1, Cdc20 (Homo sapiens, UniProt Q12834); test: Cdc20 degradation by Western blotting in MCF-7 cells; conditions: various dosages
Cdc20 [2] = target: T1, Cdc20; test: Cdc20 ubiquitylation (immunoprecipitation, anti-ubiquitin immunoblot) in MDA-MB-231 cells; conditions: 2 μM, with MG-132
MDA-MB-231 cells [3] = test: Cell cycle analysis by flow cytometry in MDA-MB-231 cells; type: cell-based; conditions: for mitotic arrest: double-thymidine synchronized
Method: . In this example, cell cycle analysis of MDA-MB-231 cells was performed after CP5V treatment. The MDA-MB-231 cells were initially synchronized by double-thymidine followed by treatment with CP5V for 16 hours. Cell cycle profile was then measured by flow cytometry.
(§1) Flow cytometry analysis. MDA-MB-231 and MDA-MB-435 cells were plated in a 6-cm dish and double-synchronized for 18 h and then 15 h with a 9-hour release with fresh medium between them. The cells were released and treated with DMSO, Apcin and CP5V at indicated concentrations for 24 h. After treatment, the cells were collected and stained with propidium iodide (PI) staining buffer and analyzed by flow cytometry.
(§2) Given that Cdc20-APC/C regulates mitotic progression through proteolysis of securin and cyclin B1, CP5V-mediated degradation of Cdc20 was examined for resultant changes of the protein level of securin and cyclin B1. […]. […]

MDA-MB-435 cells [4] = test: Cell cycle analysis by flow cytometry in MDA-MB-435 cells; type: cell-based; conditions: for mitotic arrest: synchronized
Method: as §1, §2

Cdc20 mRNA = test: Cdc20 RNA level by qRT-PCR in MDA-MB-231 cells; type: cell-based; conditions: indicated dosages, 10 hours
Method: MDA-MB-231 cells treated with CP5V at indicated dosages for 10 hours were harvested for RNA extraction, reverse-transcription, and further qRT-PCR.
To further confirm the conclusion that the CP5V-medicated degradation is depending on the ubiquitin-proteasome system, RT-PCR was conducted to measure the alteration of Cdc20 RNA levels in response to CP5V treatment.

Cdc27 = Cdc27 protein level by Western blot in MDA-MB-231 cells (specificity); type: cell-based; conditions: indicated dosages, 10 hours
Method: (§3) MDA-MB-231 cells treated with CP5V at indicated dosages for 10 hours were harvested for Western Blot.
To test the specificity for CP5V in targeting Cdc20, the dosage experiment based on MDA-MB-231 cells was repeated and the alteration of protein levels for Cdc20 and Cdc27, another core subunit of anaphase-promoting complex, was measured.

HIF1α = HIF1α accumulation by Western blot in MDA-MB-231 cells; type: cell-based; conditions: 10 hours; for HIF1α level: indicated dosages
Method: as §3
MDA-MB-231 cells treated with VHL Ligand 1 at indicated dosages for 10 hours and collected for WB.
Relatively high potential dosage of VHL ligand 1 (VHL1), the VHL-binding moiety offered by CP5V, causes concern if it affects HIF1α, the substrate of VHL.

cyclin B1 = test: Cyclin B1 level by Western blotting in MDA-MB-231 cells; type: cell-based; conditions: indicated dose, 10 hours
Method: […]. Cdc20 and cyclin-B levels were then determined by Western blotting.
as §2

MDA-MB-231 cells [5] = test: Cell proliferation CCK8 assay in MDA-MB-231 cells; type: cell-based; conditions: Homo sapiens, 72 h, read-out: IC50 of cell growth inhibition
Source text: (§4) Cell proliferation assays.

MDA-MB-435 cells [6] = test: Cell proliferation CCK8 assay in MDA-MB-435 cells; type: cell-based; conditions: Homo sapiens, 72 h, read-out: IC50 of cell growth inhibition
Source text: as §4

[7] = tested on: Tamoxifen-resistant breast cancer cells; test: Endocrine response of Tamoxifen-resistant breast cancer cells; type: cell-based
MDA-MB-435 eb cells [8] = tested on: MDA-MB-435 eb cells
MDA-MB-435 eb cells [9] = test: cells; conditions: Homo sapiens, MDA-MB-435, read-out: growth inhibition
4T1 xenograft tumor = test: Mouse 4T1 xenograft model; conditions: 100 mg/kg intraperitoneally twice per week
MCF7 cells = test: Clonogenic assay in MCF7 cells; conditions: 1 μM for 24 hours, then culture 2 weeks
U2OS cells = test: Cell survival CCK8 assay in U2OS cells; conditions: 72 hours
22Rv1 cells = test: Cell survival CCK8 assay in 22Rv1 cells; conditions: 72 hours
LNCaP cells = test: Cell survival CCK8 assay in LNCaP cells; conditions: 72 hours
Cdc20 [10] = target: T1, Cdc20; test: Cdc20 degradation by Western blotting in MDA-MB-231 cells; conditions: MLN4924 5 μM with CP5V, 10 hours

T1 sequence (Q12834 whole entry): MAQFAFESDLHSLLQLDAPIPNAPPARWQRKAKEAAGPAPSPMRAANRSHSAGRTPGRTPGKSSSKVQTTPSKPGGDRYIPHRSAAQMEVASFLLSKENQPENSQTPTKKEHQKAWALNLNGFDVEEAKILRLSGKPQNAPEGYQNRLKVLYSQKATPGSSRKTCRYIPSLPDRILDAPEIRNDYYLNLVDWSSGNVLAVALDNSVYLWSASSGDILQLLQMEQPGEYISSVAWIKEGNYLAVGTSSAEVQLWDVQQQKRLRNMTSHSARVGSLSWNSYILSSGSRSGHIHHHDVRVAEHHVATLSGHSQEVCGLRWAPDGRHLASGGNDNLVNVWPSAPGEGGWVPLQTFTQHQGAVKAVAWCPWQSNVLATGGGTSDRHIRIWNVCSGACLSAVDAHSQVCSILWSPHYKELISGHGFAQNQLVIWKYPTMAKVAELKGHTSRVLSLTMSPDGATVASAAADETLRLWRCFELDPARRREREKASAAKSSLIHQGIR

NCCCOC(=O)NC(Nc1ncccn1)C(Cl)(Cl)Cl (centres unmarked) [Apcin-A, 3-aminopropyl (2,2,2-trichloro-1-(pyrimidin-2-ylamino)ethyl)carbamate]
Cdc20 protein level (degradation) (Cdc20 [1]): no degradation of Cdc20
Cdc20 ubiquitylation (Cdc20 [2]): no obvious effect

Cc1ncc([N+](=O)[O-])n1CCOC(=O)NC(Nc1ncccn1)C(Cl)(Cl)Cl (centres unmarked) [Apcin]
mitotic arrest (MDA-MB-231 cells [3]): no effect
mitotic arrest (MDA-MB-435 cells [4]): no effect

Cc1ncsc1-c1ccc(CNC(=O)[C@@H]2C[C@@H](O)CN2C(=O)[C@H](NC(=O)CCOCCOCCOCCOCCOCCC(=O)NCCCOC(=O)NC(Nc2ncccn2)C(Cl)(Cl)Cl)C(C)(C)C)cc1 (stereo partly drawn) [CP5V, (R)-25-((2S,4R)-4-hydroxy-2-((4-(4-methylthiazol-5-yl)benzyl)carbamoyl)pyrrolidine-1-carbonyl)-26,26-dimethyl-5,23-dioxo-8,11,14,17,20-pentaoxa-4,24-diazaheptacosyl (2,2,2-trichloro-1-(pyrimidin-2-ylamino)ethyl)carbamate]
Cdc20 mRNA level (Cdc20 mRNA): no significant change
Cdc27 protein level (Cdc27): no Cdc27 protein level change
HIF1α level (HIF1α): no obvious alteration of HIF1α
cyclin B1 level (cyclin B1): largely accumulated
cells arrested in the G2/M phase (MDA-MB-231 cells [3]; 2 μM): over 40%
fraction of cells in the G0/G1 phase (MDA-MB-231 cells [3]; 2 μM, versus control cells): much lower compared to control cells
mitotic arrest (MDA-MB-231 cells [3]): induces mitotic arrest
cells arrested in the G2/M phase (MDA-MB-435 cells [4]; 2 μM): > 50%
fraction of cells in the G0/G1 phase (MDA-MB-435 cells [4]; 2 μM, versus control cells): much lower compared to control cells
mitotic arrest (MDA-MB-435 cells [4]): induces mitotic arrest
IC50 (MDA-MB-231 cells [5]): 2600 nM
IC50 (MDA-MB-435 cells [6]): 1990 nM
re-sensitization to Tamoxifen [7]: re-sensitizes Tamoxifen-resistant breast cancer cells to Tamoxifen treatment
Taxol-cytotoxic response of Taxol-resistant cells (MDA-MB-435 eb cells [8]; with 5 nM paclitaxel): significantly restored their Taxol-cytotoxic response
inhibition at 5 µM (MDA-MB-435 eb cells [9]): > 50%
Cdc20 expression in the xenograft tumor (IHC) (4T1 xenograft tumor): decreased Cdc20 expression
Ki67 index in the tumor (IHC) (4T1 xenograft tumor): decreasing the Ki67 index
effect on mice body weight (4T1 xenograft tumor): no significant effect
expression of caspase-3 in the tumor (IHC) (4T1 xenograft tumor): did not change dramatically
liver toxicity (4T1 xenograft tumor): no significant effect
reduction of the size of the xenograft tumor compared to placebo (4T1 xenograft tumor; Balb/C mice): approximately 70%
reduction of the weight of the xenograft tumor compared to placebo (4T1 xenograft tumor; Balb/C mice): approximately 70%
colony formation (killing of breast cancer cells) (MCF7 cells): potent efficacy in killing breast cancer cells
inhibition of cell growth (U2OS cells): significant inhibition of cell growth
inhibition of cell growth (22Rv1 cells): significant inhibition of cell growth
inhibition of cell growth (LNCaP cells): significant inhibition of cell growth

NS(=O)(=O)OC[C@@H]1C[C@@H](n2ccc3c(N[C@H]4CCc5ccccc54)ncnc32)C[C@@H]1O [MLN4924]
effect on CP5V-mediated Cdc20 degradation (Cdc20 [10]): inhibited the degradation of Cdc20 caused by CP5V

Cc1ncsc1-c1ccc(CNC(=O)[C@@H]2C[C@@H](O)CN2C(=O)[C@@H](N)C(C)(C)C)cc1 [VHL ligand 1]
concentration that induced HIF-α accumulation (HIF1α): ≥ 1 µM
HIF1α level (HIF1α): significant HIF1α is accumulated

CC(=O)O[C@H]1C(=O)[C@@]2(C)[C@H]([C@H](OC(=O)c3ccccc3)[C@]3(O)C[C@H](OC(=O)[C@H](O)[C@@H](NC(=O)c4ccccc4)c4ccccc4)C(C)=C1C3(C)C)[C@]1(OC(C)=O)CO[C@@H]1C[C@@H]2O [paclitaxel, reference compound]
cells survived (MDA-MB-435 eb cells [8]; 5 nM paclitaxel alone): about 92%
inhibition at 0.005 µM (MDA-MB-435 eb cells [9]): < 10%
